Measurements as given in patent US10023593B2, “ALK kinase inhibitor, and preparation method and uses thereof” (BEIJING PEARL BIOTECHNOLOGY LIMITED LIABILITY COMPANY, priority 2014, dated 2018).

Test system: NCI-H2228 cell line
Assay: CellTiter-Glo cell proliferation inhibition on NCI-H2228 cell line
Assay type: cell-based
Conditions: Homo sapiens, NCI-H2228 cells, 5000 cells/well, 4 days drug treatment
Procedure: 3. Cell Proliferation Inhibitory Activities of the Compounds of the Present Invention on NCI-H2228 Cell Line
? experimental method ? CellTiter-Glo® Luminescent Cell Viability Assay kit from Promega company was used to detect cell proliferation inhibitory activities of the compounds on NCI-H2228 cell line.
? instrument ? Envision 2104 plate reader from PerKinElmer company; Vi-Cell XR cell counter from Beckman Counter company; MCO-18AIC CO2 incubator from SANYO company.
? experiment material ? CellTiter-Glo® Luminescent Cell Viability Assay Kit (Promega company, catalog No. G7573); NCI-H2228 cell line (ATCC, catalog No. CRL-5935); RPMI-1640 medium (HyClone company, catalog No. SH30809.01B); fetal bovine serum (FBS) (Gibco company, catalog No. 10099-141); trypsin (Trypsin) (Gibco company, catalog No. 25200-072); PBS (HyClone company, catalog No. SH30256.01B); 96 wells cell culture plate (Corning company, catalog No. 3610); DMSO (AMRESCO company, catalog No. 0231); 96 wells plates (for diluting compounds) (CITOTEST company, catalog No. Ref36020096D);
? experimental condition ? NCI-H2228 cells in exponential growth phase were collected and treated with trypsin (Trypsin), and viable cells were counted by Vi-Cell XR cell counter. Cell suspension was adjusted to 62500 cells/ml with culture medium (RPMI-1640+10% FBS). 80 μl cell suspension was added into each well of 96 wells cell culture plate so that the final cell number of NCI-H2228 cells was 5000 cells/well. The cells were cultivated in an incubator with an atmosphere of 37° C., 5% CO2 and 95% humidity for 2 hours and then each well was added with 20 μl compounds in RPMI-1640 medium solution (the final concentration of DMSO was 0.5%). 4 days after drug treatment, each well was added with 50 μl CellTiter-Glo solution which was previously thawed and equilibrated to room temperature, and mixed for 2 minutes with microplate shaker. After placing at room temperature for 10 minutes, luminescence value was measured by PerkinElmer Envision 2104 plate reader and the data was analyzed.
? tested samples ? Compounds of the examples.
? data analysis ? Luminescence value of DMSO solvent control (Vvehicle control, which is the mean luminescence value from DMSO solvent control group)
Tested luminescence value (Vsample, which is the luminescence value from given concentration of compounds group) Inhibition rate (%)=(1−Vsample/Vvehicle control)×100
? data processing ? IC50 of compounds was calculated by using XLfit program in Excel.

SMILES	IC50 (NCI-H2228, 96 h) [nM]	IC50 (96 h) [nM]
Cc1cc(Nc2ncc(Cl)c(Nc3cn(C)nc3S(=O)(=O)C(C)C)n2)c(OC2CC2)cc1C1CCN(C2CCN(C)CC2)CC1 [Final product 158, 5-chloro-N^2-(2-cyclopropoxy-5-methyl-4-(1-(1-methyl-piperidin-4-yl)piperidin-4-yl)phenyl)-N^4-(3-(isopropylsulfonyl)-1-methyl-1H-pyrazol-4-yl)pyrimidin-2,4-diamine]		170
Cc1cc(Nc2ncc(Cl)c(Nc3cn(C)nc3S(=O)(=O)CC(C)C)n2)c(OC2CC2)cc1[C@H]1CC[C@@H](N(C)C)CC1 [Final product 175, 5-chloro-N^2-(2-cyclopropoxy4-(4-(dimethylamino)cyclohexyl)-5-methylphenyl)-N^4-(3-(isobutylsulfonyl)-1-methyl-1H-pyrazol-4-yl) pyrimidin-2,4-diamine]	256	
Cc1cc(Nc2ncc(Cl)c(Nc3cn(C)nc3S(=O)(=O)CC(C)C)n2)c(OC2CC2)cc1[C@H]1CC[C@@H](NC2CC2)CC1 [Final product 179]	137	
Cc1cc(Nc2ncc(Cl)c(Nc3cn(C)nc3S(=O)(=O)C(C)C)n2)c(OC(C)C)cc1C1CCC(N(C)C)CC1 (stereo not drawn) [Final product 183]	172	
CCN(CC)[C@H]1CC[C@H](c2cc(OC(C)C)c(Nc3ncc(Cl)c(Nc4cn(C)nc4S(=O)(=O)C(C)C)n3)cc2C)CC1 [Final product 184]	188	
Cc1cc(Nc2ncc(Cl)c(Nc3cn(C)nc3S(=O)(=O)C(C)C)n2)c(OC(C)C)cc1[C@H]1CC[C@@H](NC2CC2)CC1 [Final product 185]	296	
Cc1cc(Nc2ncc(Cl)c(Nc3cn(C)nc3S(=O)(=O)C(C)C)n2)c(OC(C)C)cc1[C@H]1CC[C@H](NC2CC2)CC1 [Final product 186]	253	
Cc1cc(Nc2ncc(Cl)c(Nc3cn(C)nc3S(=O)(=O)C(C)C)n2)c(OC2CC2)cc1[C@H]1CC[C@@H](NC2CC2)CC1 [Final product 195]	116	
Cc1cc(Nc2ncc(Cl)c(Nc3cn(C)nc3S(=O)(=O)C(C)C)n2)c(OC2CC2)cc1[C@H]1CC[C@@H](NCCN(C)C)CC1 [Final product 199]	225	
Cc1cc(Nc2ncc(Cl)c(Nc3cn(C)nc3S(=O)(=O)C(C)C)n2)c(OC2CC2)cc1[C@H]1CC[C@H](NCCN(C)C)CC1 [Final product 200]	210	
Cc1cc(Nc2ncc(Cl)c(Nc3cn(C)nc3S(=O)(=O)C(C)C)n2)c(OC2CC2)cc1C1CCC(N2CCCC2)CC1 (stereo not drawn) [Final product 201]	149	
CC(=O)N1CCN([C@H]2CC[C@@H](c3cc(OC4CC4)c(Nc4ncc(Cl)c(Nc5cn(C)nc5S(=O)(=O)C(C)C)n4)cc3C)CC2)CC1 [Final product 203]	189	
Cc1cc(Nc2ncc(Cl)c(Nc3cn(C)nc3S(=O)(=O)C(C)C)n2)c(OC2CC2)cc1[C@H]1CC[C@H](NC(=O)C2CC2)CC1 [Final product 207, N-(4-(4-(5-chloro-4-(3-(isopropylsulfonyl)-1-methyl-1H-pyrazol-4-amine)pyrimidin-2-amine)-5-cyclopropoxy-2-methylphenyl)cyclohexyl) cyclopropyl carboxamide]	154	

Continued, in another order:

IC50 (NCI-H2228, 96 h) [nM]	SMILES	IC50 (96 h) [nM]
75	Cc1cc(Nc2ncc(Cl)c(Nc3cn(C)nc3S(=O)(=O)C(C)C)n2)c(OC2CC2)cc1C1CCN(CC(=O)N(C)C)CC1 [Final product 155, 2-(4-(4-(5-chloro-4-(3-(isopropoxysulfonyl)-1-methyl-1H-pyrazol-4-yl-amino)pyrimidin-2-yl-amine)-5-cyclopropoxy-2-methylphenyl)piperidin-1-yl)-N,N-dimethylacetamide]	
91	Cc1cc(Nc2ncc(Cl)c(Nc3cn(C)nc3S(=O)(=O)CC(C)C)n2)c(OC2CC2)cc1[C@H]1CC[C@H](N(C)C)CC1 [Final product 176, 5-chloro-N^2-(2-cyclopropoxy4-(4-(dimethylamino)cyclohexyl)-5-methylphenyl)-N^4-(3-(isobutylsulfonyl)-1-methyl-1H-pyrazol-4-yl) pyrimidin-2,4-diamine]	
73	CCN(CC)[C@H]1CC[C@@H](c2cc(OC3CC3)c(Nc3ncc(Cl)c(Nc4cn(C)nc4S(=O)(=O)CC(C)C)n3)cc2C)CC1 [Final product 177]	
106	Cc1cc(Nc2ncc(Cl)c(Nc3cn(C)nc3S(=O)(=O)CC(C)C)n2)c(OC2CC2)cc1[C@H]1CC[C@@H](NC(C)C)CC1 [Final product 181]	
111	Cc1cc(Nc2ncc(Cl)c(Nc3cn(C)nc3S(=O)(=O)C(C)C)n2)c(OC(C)C)cc1[C@H]1CC[C@@H](NC(C)C)CC1 [Final product 187]	
116	Cc1cc(Nc2ncc(Cl)c(Nc3cn(C)nc3S(=O)(=O)C(C)C)n2)c(OC2CC2)cc1[C@H]1CC[C@@H](N(C)C(C)C)CC1 [Final product 193]	
78	Cc1cc(Nc2ncc(Cl)c(Nc3cn(C)nc3S(=O)(=O)C(C)C)n2)c(OC2CC2)cc1[C@H]1CC[C@H](N(C)C(C)C)CC1 [Final product 194]	
72	Cc1cc(Nc2ncc(Cl)c(Nc3cn(C)nc3S(=O)(=O)C(C)C)n2)c(OC2CC2)cc1[C@H]1CC[C@@H](NC(C)C)CC1 [Final product 197]	
